Measured values reported in patent publication US11273172B2, “Synergistic combination of oligonucleotides and chemotherapeutic for treating cancer” (THE BOARD OF TRUSTEES OF THE UNIVERSITY OF ILLINOIS, priority 2017, dated 2022).
Values joined by “and” are separate entries in the source; they are usually repeats but may differ in a detail not shown here. Identical values can stand only once.

What was measured:
Assay in all cases: MTT cell death assay, chemotherapeutic with and without MADD siRNA knockdown
Assay type in all cases: cell-based
Settings in all cases: siRNA 10 nM
[1] = system: H522 lung cancer cells
Experimental: (§1) Cells are cultured and maintained at 37° C. in a humidified atmosphere containing 5% CO2 as described above. On Day 0, Cells are seeded in […] tissue culture dishes (Corning; Cat Number: 353003) to attain 60-70% confluence. In parallel, cells are also seeded in one 96-well plate (Corning; Cat number: 353072) for analysis of survival before reseeding. After 12-18 hours (Day 1), cells are transfected with Scramble or MADD siRNA at 10 nM concentration. The sequences of siRNAs (double-stranded) used are:
(§2) On Day 4, when cells are properly adhered and retained their shape in 96-well plates, drugs are added. All drugs are diluted in complete media on the same day prior to the addition to the cells. In untreated cells, media is replaced with complete media. Two hundred μl volume of media (with or without drugs) is used for the drug treatment assay. Plates are incubated 24 hours, 48 hours and 72 hours at 37° C. in humidified CO2 incubator.
(§3) An MTT assay is performed to determine relative survival after drug treatment as described above. MTT (3-[4,5-Dimethylthiazol-2-yl]-2,5-diphenyltetrazolium bromide; Thiazolyl blue) is purchased from Sigma Aldrich (Cat number: M5655). MTT is dissolved in sterile DPBS at the concentration of 5 mg/ml and filtered through 0.45 μM syringe filter (Corning; Cat number: 431220). Ten μl of MTT solution is added per well of 96-well plate. Plates are incubated for 2 hours at 37° C. in the humidified CO2 incubator. After 2 hours, media is aspirated using vacuum inside the biosafety hood. Purple colored crystals formed in viable cells are dissolved by adding 100 μl of Dimethyl sulfoxide (Thermo Fisher Scientific; Cat number D128-500) Plates are kept on shaker for 10 minutes for compete dissolution of crystals and absorbance is recorded at 595 nm using Bio-Rad iMark microplate reader. Data is analyzed in MICROSOFT EXCEL® software. Relative survival is calculated with respect to absorbance of control (untreated cells) to determine the effect of transfection as well as combination treatment.
(§4) Each data set takes into account any spontaneous cell death which is observed upon transfection with Scramble siRNA; the amount of spontaneous cell death from Scramble siRNA transfection (baseline) is subtracted from the amount of cell death observed in each siRNA transfection reaction to yield a Net Percent (Net %) cell death after accounting for Scrambled siRNA-induced cell death.
(§5) Cells are cultured and maintained at 37° C. in a humidified atmosphere containing 5% CO2 as described above. On Day 0, Cells are seeded in […] tissue culture dishes (Corning; Cat Number: 353003) to attain 60-70% confluence. In parallel, cells are also seeded in one 96-well plate (Corning; Cat number: 353072) for analysis of survival before reseeding. After 12-18 hours (Day 1), cells are transfected with Scramble or MADD siRNA at 10 nM concentration. The sequences of siRNAs (double stranded) used are:
as §3, with “D128-500).” for “D128-500)”, “Relative survival is calculated with respect to absorbance of control (untreated cells) to determine the effect of transfection as well as combination treatment.” left out

[2] = system: OVCAR3 ovarian cancer cells
Experimental: as §1, §2, §3, §4, §5
as §3, with “D128-500).” for “D128-500)”, “Relative survival is calculated with respect to absorbance of control (untreated cells) to determine the effect of transfection as well as combination treatment.” left out

[3] = system: 8505C thyroid cancer cells
Experimental: Cells are cultured and maintained at 37° C. in a humidified atmosphere containing 5% CO2 as described above. […] After 12-18 hours (Day 1), cells are transfected with Scramble or MADD siRNA at 10 nM concentration. The sequences of siRNAs (double stranded) used are:
On Day 4, when cells are properly adhered and retained their shape in 96-well plates, drugs are added. All drugs are diluted in complete media on the same day prior to the addition to the cells. In untreated cells, media is replaced with complete media. Two hundred μl volume of media (with or without drugs) is used for the drug treatment assay. Plates are incubated 24 h, 48 h and 72 hours at 37° C. in humidified CO2 incubator.
as §3, with “MTT is dissolved in sterile DPBS at the concentration of 5 mg/ml and filtered through 0.45 μM syringe filter (Corning; Cat number: 431220).” left out
as §4, §2

[4] = Sorafinib 1.56 μM, 48 hours post Sorafinib treatment
[5] = Sorafinib 5 μM, 48 hours post Sorafinib treatment
[6] = Gemcitabine 8.2 nM, 48 hours post Gemcitabine treatment
[7] = TRAIL 100 ng/ml, 48 hours post TRAIL treatment
[8] = Gemcitabine 0.0125 μM, 72 hours post Gemcitabine treatment
[9] = Gemcitabine 0.1 μM, 48 hours post Gemcitabine treatment
[10] = 8505C thyroid cancer cells, TRAIL 6.25 ng/ml, 48 hours post TRAIL treatment
[11] = 8505C, Cisplatin 2.5 μM, 48 hours post Cisplatin treatment
[12] = 8508C thyroid cancer cells, TRAIL 6.25 ng/ml, 48 hours post TRAIL treatment

Molecule | Net % cell death after accounting for Scrambled siRNA [1, 4] | Observed % Cell death [1, 4] [%] | Net % cell death after accounting for Scrambled siRNA [2, 5] | Observed % Cell death [2, 5] [%] | Observed % Cell death [1, 6] [%] | Observed % Cell death [1, 7] [%] | Observed % Cell death [2, 8] [%] | Observed % Cell death [2, 9] [%] | Net % cell death after accounting for Scrambled siRNA [3, 10] | Net % cell death after accounting for Scrambled siRNA [3, 11] | Observed % Cell death [3, 11] [%] | Observed % Cell death [3, 12] [%] | Net % cell death after accounting for Scrambled siRNA [1, 6] | Net % cell death after accounting for Scrambled siRNA [1, 7] | Net % cell death after accounting for Scrambled siRNA [2, 8] | Net % cell death after accounting for Scrambled siRNA [2, 9]
CNC(=O)c1cc(Oc2ccc(NC(=O)Nc3ccc(Cl)c(C(F)(F)F)c3)cc2)ccn1 [Sorafinib] | 0% | 0 | 17% | 17 |  |  |  |  |  |  |  |  |  |  |  | 
MADD siRNA: siRNA targeting exon 13L of the MADD splice variant of the IG20 gene; SEQ ID NO: 4, 5′-GAUUGUCAUAGAUUCGCCGTT-3′ (chemistry not given here) |  | 37 |  | 19 | 37 | 37 | 23 | 19 | 39% and 49 − 10 = 39% | 39% and 49 − 10 = 39% | 49 | 49 |  |  |  | 
Scrambled siRNA: non-specific Scramble siRNA, negative control; SEQ ID NO: 5, 5′-UUGCUAAGCGUCGGUCAAUTT-3′ (chemistry not given here) | 30 − 30 = 0% | 30 | 17 − 17 = 0% | 17 | 30 | 30 | 26 | 17 | 10 − 10 = 0% | 10% | 10 | 10 | 30 − 30 = 0% | 30 − 30 = 0% | 26 − 26 = 0% | 17 − 17 = 0%
TRAIL: cytotoxic protein which induces apoptosis in tumor cells, but not in normal cells (protein, UniProt P50591 1-281, looked up) Tumor necrosis factor ligand …: MAMMEVQGGPSLGQTCVLIVIFTVLLQSLCVAVTYVYFTNELKQMQDKYSKSGIACFLKEDDSYWDPNDEESMNSPCWQVKWQLRQLVRKMILRTSEETISTVQEKQQNISPLVRERGPQRVAAHITGTRGRSNTLSSPNSKNEKALGRKINSWESSRSGHSFLSNLHLRNGELVIHEKGFYYIYSQTYFRFQEEIKENTKNDKQMVQYIYKYTSYPDPILLMKSARNSCWSKDAEYGLYSIYQGGIFELKENDRIFVSVTNEHLIDMDHEASFFGAFLVG |  |  |  |  |  | 0 |  |  | 6.56% and 7% |  |  | 7 |  | 0% |  | 
